Laboratory results taken from patent US20210087159A1, “TETRAHYDROCANNABINOLIC- CA[…] DERIVATIVES AND USES THEREOF” (AL&AM […]., priority 2018, published 2021).
Read-outs that look alike come from different tables or passages of the source.

Columns and labels:
Test in all cases: CellTiter-Glo cell viability assay, cancer cell cytotoxicity/anti-proliferation panel (Chempartner)
Type in all cases: cell-based
[1] = tested on: SK-HEP-1, liver adenocarcinoma; conditions: for IC50: Homo sapiens, SK-HEP1, 72 h, read-out: IC50 (absolute IC50); for Inhibition: SK-HEP-1, 72 hours, compounds 10 μM starting, STS 2 μM starting, 10-pt, 3-fold dilution
Procedure: (§1) In this study, the biological activity of certain compounds of the present invention on cancer cell cytotoxicity/anti-proliferation panel was tested using the CellTiter-Glo® cell viability assay. The compounds were dissolved in DMSO to make 10 mM solution.
(§2) The cell lines tested were all selected from the Chempartner's cell collection and included: Caco-2 ATCC colon adenocarcinoma; TE-6 RIKEN esophagus, carcinoma; PC-3 ATCC prostate adenocarcinoma; T47D, breast ductal carcinoma; U251, brain human glioma; A549, lung carcinoma; OMP-2, multiple myeloma; SK-HEP-1, liver adenocarcinoma; PANC-1, pancreas ductal carcinoma; AsPC-1, pancreas, ductal carcinoma; and U-87 MG, brain glioblastoma.
(§3) For the assays described herein, absolute inhibition of cells growth (%) and absolute IC50 (Abs IC50; […]) were used to derive a value that can be used to compare results within and across runs in the same assay, as well as between different assays.
(§4) • a. Prepare complete medium: Add FBS and appropriate additives according to the information sheet provided by the vendor. Mix gently. • b. Check the cell name and complete medium and passage number marked on the flask. For adherent cell lines, refer to c to k. For suspension cell lines, refer to g to k. • c. Remove and discard culture medium using a vacuum pump. • d. Briefly rinse the cell layer with 0.25% (w/v) trypsin-0.038% (w/v) EDTA solution to remove all traces of serum that contains trypsin inhibitor. • e. Add 3.0 ml of trypsin-EDTA solution to flask and observe cells under an inverted microscope until cell layer is dispersed. • f. Add 8.0 ml of complete growth medium and aspirate cells by gently pipetting. • g. Transfer the cell suspension to a centrifuge tube and centrifuge at 800-1000 rpm for 3-5 minutes. • h. Discard the supernatant using a vacuum pump. • i. Add appropriate volume of complete medium. Suspend the cell pellet by gently pipetting. • j. Count the cell numbers with Vi-cell XR and adjust cells to appropriate density. • k. Add 100 μL of cell suspension to 96-well opaque-walled clear bottom plates according to the planned plate layout and place the plates in the CO2 incubator overnight. • l. Plate layout:
(§5) • Plate preparation of testing articles. 10 mM stock solution of each one of the compounds (provided as powder) was prepared in DMSO. […] 0.5 μL of each of the diluted compounds was transferred to the wells containing 100 μL of the culture medium. The total dilution was 200 fold. Cells were incubated with the compounds for 72 hours at 5% CO2, 37° C.
(§6) • Thaw the CellTiter-Glo buffer and equilibrate to room temperature prior to use. • Equilibrate the lyophilized CellTiter-Glo substrate to room temperature prior to use. • Transfer the appropriate volume of CellTiter-Glo buffer into the amber bottle containing CellTiter-Glo substrate to reconstitute the lyophilized enzyme/substrate mixture. This forms the CellTiter-Glo reagent. • Mix by gently vortexing, swirling or by inverting the contents to obtain a homogeneous solution. The CellTiter-Glo substrate should go into solution easily in less than one minute.
(§7) • Observe the cell morphology under an inverted microscope after corresponding treatment. • Equilibrate the plate and its contents to room temperature for approximately 30 minutes. • Add 100 μL of CellTiter-Glo reagent to the assay plate by Multidrop Combi instrument. • Mix contents for 10 minutes on an orbital shaker to induce cell lysis. • Allow the plate to incubate at room temperature for 10 minutes to stabilize luminescent signal. • Paste the clear bottom with white back seal and record luminescence with Enspire. The settings should be: Luminescence, measurement time 0.1 ms.
(§8) Inhibition (%) and absolute IC50 (μM) of each compound was calculated with XLFit curve fitting software that is compatible to Activity Base.

OMP-2, multiple myeloma = conditions: for IC50: 72 h, read-out: IC50 (absolute IC50); for Inhibition: OMP-2, 72 hours, compounds 10 μM starting, STS 2 μM starting, 10-pt, 3-fold dilution
Procedure: as §1, §2, §3, §4, §5, §6, §7, §8

[2] = tested on: U-87 MG, brain glioblastoma; conditions: for Inhibition: 72 hours, compounds 10 μM starting, STS 2 μM starting, 10-pt, 3-fold dilution; for IC50: Homo sapiens, 72 h, read-out: IC50 (absolute IC50)
Procedure: as §1, §2, §3, §4, §5, §6, §7, §8

A549, lung carcinoma = conditions: for Inhibition: A549, 72 hours, compounds 10 μM starting, STS 2 μM starting, 10-pt, 3-fold dilution; for IC50: Homo sapiens, A549, 72 h, read-out: IC50 (absolute IC50)
Procedure: as §1, §2, §3, §4, §5, §6, §7, §8

[3] = tested on: T47D, breast ductal carcinoma; conditions: for IC50: Homo sapiens; for Inhibition: compounds 10 μM starting, STS 2 μM starting
Procedure: as §1, §2, §3, §4, §5, §6, §7, §8

[4] = tested on: PANC-1, pancreas ductal carcinoma; conditions: for IC50: Homo sapiens, PANC-1, 72 h, read-out: IC50 (absolute IC50); for Inhibition: PANC-1, 72 hours, compounds 10 μM starting, STS 2 μM starting, 10-pt, 3-fold dilution
Procedure: as §1, §2, §3, §4, §5, §6, §7, §8

[5] = T47D, 72 h, read-out: IC50 (absolute IC50)
[6] = T47D, 72 hours, 10-pt, 3-fold dilution

Row | Compound | IC50 [1] | Inhibition [1] | IC50 (OMP-2, multiple myeloma) | Inhibition (OMP-2, multiple myeloma) | Inhibition [2] | IC50 [2] | Inhibition (A549, lung carcinoma) | IC50 (A549, lung carcinoma) | IC50 [3, 5] | Inhibition [3, 6] | IC50 [4] | Inhibition [4] | IC50 ([3]; Table 5, T47D cells, 72 hours, read-out: AbsIC50) | Inhibition % ([3]; Table 5, T47D cells, 72 hours, 10 μM starting, 10-pt, 3-fold dilution)
1 | CCCCCc1cc2c(c(O)c1C(=O)NCCN(C)C)[C@@H]1C=C(C)CC[C@H]1C(C)(C)O2 [Ia6, (6aR,0aR)—N-(2-(dimethylamino)ethyl)-1-hydroxy-6,6,9-trimethyl-3-pentyl-6a,7,8,10a-tetrahydro-6H-benzo[c]chromene-2-carboxamide] | > 10 µM | 49.38% | > 10 µM | 47.73% | 13.79% | > 10 µM | 66.67% | 7.34 µM | 6.09 µM | 84.19% | 6.02 µM | 90.10% | – | –
2 | CCCCCc1cc2c(c(O)c1C(=O)NCCCN1CCOCC1)[C@@H]1C=C(C)CC[C@H]1C(C)(C)O2 [Ia9, (6aR,0aR)-1-hydroxy-6,6,9-trimethyl-N-(3-morpholinopropyl)-3-pentyl-6a,7,8,10a-tetrahydro-6H-benzo[c]chromene-2-carboxamide] | 5.41 µM | 78.20% | 6.72 µM | 76.40% | 19.84% | > 10 µM | 77.08% | 5.59 µM | 5.52 µM | 97.90% | 5.46 µM | 92.19% | – | –
3 | C=C(C)[C@@H]1CCC(C)=C[C@H]1c1c(O)cc(CCCCC)c(C(=O)NCCCN2CCOCC2)c1O [Ia28, (1′R,2′R)-2,6-dihydroxy-5′-methyl-N-(3-morpholinopropyl)-4-pentyl-2′-(prop-1-en-2-yl)-1′,2′,3′,4′-tetrahydro-[1,1′-biphenyl]-3-carboxamide] | – | – | – | – | – | – | – | – | – | – | – | – | > 10 µM | 14.85%
4 | CCCCCc1cc2c(c(O)c1C(=O)O)[C@@H]1C=C(C)CC[C@H]1C(C)(C)O2 [THCA, tetrahydrocannabinolic acid, reference compound] | > 10 µM | 16.52% | > 10 µM | 5.94% | 10.52% | > 10 µM | 9.30% | > 10 µM | > 10 µM | 18.20% | > 10 µM | 15.20% | – | –
